Data: patent EP0329361A2, “2-pyranone derivatives and process for production thereof” (priority 1988, dated 1989)

Columns and labels:
Botrytis cinerea S-9 = test: Disease suppressive activity against gray mold, cucumber seedling cotyledon test; format: in vivo; details: strain S-9 (sensitive to antimicrobial agents), incubated at 20°C for three days
Procedure: (§1) The disease suppressive activity of the present compounds I-a, I-c (and I-b), I-d (and I-e), I-f, I-g, I-h, and I-i against the gray mold was tested by the following procedure. A solution of the present compound having a predetermined concentration was coated,with an absorbent cotton block, on the cotyledon of a cucumber seedling seven days after seeding. One day after the coating, an agar disk having a diameter of 5 mm containing Botrytis cinerea was put on the coated cotyledon, the plant was incubated at 20°C for three days, and the disease suppresive activity of the tested compound was observed. In Table 4, Botrytis cinerea RR-4 is a strain resistant to antimicrobial agents (multi-resistant strain), isolated from a diseased seedling of egg plant, and Botrytis cinerea S-9 is a strain sensitive to antimicrobial agents, isolated from a diseased petal of orange blossom. Note, the extent of the disease suppressive effect is expressed by symbols + (no lesion), ± (lesion having a diameter of less than 10 mm formed), and - (lesion having a diameter of not less than 10 mm formed).

Botrytis cinerea RR-4 = test: as above; format: in vivo; details: strain RR-4 (multi-resistant strain), incubated at 20°C for three days
Procedure: as §1

[1] = 8 ppm coated on cucumber seedling cotyledon
[2] = 32 ppm coated on cucumber seedling cotyledon
[3] = 125 ppm coated on cucumber seedling cotyledon

CCC1C=CC(=O)OC1C=CC(O)(CCN)C(CC(O)C=CC=CC1CCCC(OC(=O)CCCCC(C)C)C1)OP(=O)(O)O (stereo not drawn) [I-h]
Disease suppressive effect to Botrytis cinerea (Botrytis cinerea S-9; [1]): - (- (lesion having a diameter of not less than 10 mm formed))
Disease suppressive effect to Botrytis cinerea (Botrytis cinerea S-9; [2]): +
Disease suppressive effect to Botrytis cinerea (Botrytis cinerea RR-4; [1]): - (- (lesion having a diameter of not less than 10 mm formed))
Disease suppressive effect to Botrytis cinerea (Botrytis cinerea RR-4; [2]): +

CCC1C=CC(=O)OC1C=CC(O)(CCN)C(CC(O)C=CC=CC1CCCCC1)OP(=O)(O)O (stereo not drawn) [I-a]
Disease suppressive effect to Botrytis cinerea (Botrytis cinerea S-9; [2]): - (- (lesion having a diameter of not less than 10 mm formed))
Disease suppressive effect to Botrytis cinerea (Botrytis cinerea S-9; [3]): +
Disease suppressive effect to Botrytis cinerea (Botrytis cinerea RR-4; [2]): - (- (lesion having a diameter of not less than 10 mm formed))
Disease suppressive effect to Botrytis cinerea (Botrytis cinerea RR-4; [3]): +

CCCCCCCC(=O)OC1CCCC(C=CC=CC(O)CC(OP(=O)(O)O)C(O)(C=CC2OC(=O)C=CC2CC)CCN)C1 (stereo not drawn) [I-i]
Disease suppressive effect to Botrytis cinerea (Botrytis cinerea S-9; [1]): - (- (lesion having a diameter of not less than 10 mm formed))
Disease suppressive effect to Botrytis cinerea (Botrytis cinerea S-9; [2]): +
Disease suppressive effect to Botrytis cinerea (Botrytis cinerea RR-4; [1]): - (- (lesion having a diameter of not less than 10 mm formed))
Disease suppressive effect to Botrytis cinerea (Botrytis cinerea RR-4; [2]): +

CCC(C)CCC(=O)OC1CCCC(C=CC=CC(O)CC(OP(=O)(O)O)C(O)(C=CC2OC(=O)C=CC2CC)CCN)C1 (stereo not drawn) [I-g]
Disease suppressive effect to Botrytis cinerea (Botrytis cinerea S-9; [1]): +
Disease suppressive effect to Botrytis cinerea (Botrytis cinerea S-9; [2]): +
Disease suppressive effect to Botrytis cinerea (Botrytis cinerea RR-4; [1]): +
Disease suppressive effect to Botrytis cinerea (Botrytis cinerea RR-4; [2]): +

CC12CC1(C)C(=O)N(c1cc(Cl)cc(Cl)c1)C2=O (stereo not drawn) [Procymidone, reference compound]
Disease suppressive effect to Botrytis cinerea (Botrytis cinerea S-9; [2]): - (- (lesion having a diameter of not less than 10 mm formed))
Disease suppressive effect to Botrytis cinerea (Botrytis cinerea S-9; [3]): +
Disease suppressive effect to Botrytis cinerea (Botrytis cinerea RR-4; [2]): - (- (lesion having a diameter of not less than 10 mm formed))
Disease suppressive effect to Botrytis cinerea (Botrytis cinerea RR-4; [3]): - (- (lesion having a diameter of not less than 10 mm formed))

CCC1C=CC(=O)OC1C=CC(O)(CCN)C(CC(O)C=CC=CC1CCCC(OC(=O)C2CCCCC2)C1)OP(=O)(O)O (stereo not drawn) [I-f]
Disease suppressive effect to Botrytis cinerea (Botrytis cinerea S-9; [1]): +
Disease suppressive effect to Botrytis cinerea (Botrytis cinerea S-9; [2]): +
Disease suppressive effect to Botrytis cinerea (Botrytis cinerea RR-4; [1]): +
Disease suppressive effect to Botrytis cinerea (Botrytis cinerea RR-4; [2]): +
